The values that follow come from US20040171086A1, “Selective modulation of TLR-mediated biological activity” (3M Innovative Properties Company, priority 2003, published 2004).

Holding throughout (assay type): cell-based, human
Test [1] has as its system Myeloid DCs. Nature of the test: IL-12 production by myeloid DCs (IGEN analysis). As for the experimental part: (§1) The blood myeloid dendritic cells (mDC) were isolated from the BDCA-4 negative cell fraction using the Miltenyi Microbead technology system (Miltenyi BioTec, Auburn, Calif.). Cells were resuspended in 4° C. separation buffer (PBS- pH 7.2, 0.5% BSA-2.5 gm, 2 mM 0.5M EDTA) at 20 μl per 10^7 total cells. […] The cells were resuspended in 500 μL of separation buffer per 10^8 total cells. […] BDCA-1^+mDCs were enriched using the Miltenyi Automacs POSSELD software. The cells retained in the column were eluted into a sterile 50 mL polystyrene conical tube.
(§2) Compounds, reconstituted in dimethyl sulfoxide (DMSO, sterile cell culture grade, Sigma Chemical Co., St. Louis, Mo.) were added at 2× their final concentration to a 96-well flat-bottom sterile tissue culture polystyrene plate (Benton Dickinson Labware, Franklin Lakes, N.J.). Cells were then added at 2× the final concentration (final cell concentration is 1×10^6 cells/mL). Plates were incubated for 16-24 hours at 37° C., 5% CO2. After incubation, plates were centrifuged at 1000 RPM for 10 minutes at 25° C. Supernatants were transferred to a 0.75 mL sterile polypropylene Matrix box (Matrix, Hudson, N.Y.) and stored at −20° C. for future cytokine analysis.
IL-12 analysis was performed using IGEN analysis. More than two hours prior to performing the analysis, a 1:20 dilution of M-280 Streptavidin Dynabeads was prepared in IGEN buffer. Also, a 1 μg/mL solution of biotinylated IL-12 antibody (Cat. No. AHC7129, Biosource International, Camarillo, Calif.) in IGEN buffer was prepared. The 1:20 Dynabeads solution and the biotinylated antibody solution were mixed together and incubated 30 minutes at room temperature, then stored at 4° C. until the analysis was performed.
To perform the analysis, 50 μL of the Dynabeads/biotinylated antibody solution was added to each well of a 96-well plate. […] 25 μL of sample was added to each well, each sample containing either a standard dilution or an experimental sample.
The 96-well plate was tapped to mix the contents of each well, covered with plate sealer, and incubated at room temperature for 2.5 hours. Following the incubation, 100 μL of IGEN PBS Buffer was added to each well for a total assay volume of 200 μL and read on the IGEN M-8 Analyzer (IGEN International, Inc., Gaithersburg, Md.) using the hIL-12 protocol.

For test [2], the system named is plasmacytoid dendritic cells (pDCs). In words: Activation of plasmacytoid dendritic cells (CD80/HLA-DR staining, flow cytometry). The following applies: two donors; 1 μM IRM or 3 μM CpG2216, 16-24 hours; HLA-DR positive with increased CD80; FIG. 2. As for the experimental part: The cells were resuspended in 500 μL of separation buffer per 10^8 total cells. […] The cells retained in the column were eluted into a sterile 50 mL polystyrene conical tube.
as §2

For test [3], the system named is myeloid dendritic cells (mDCs). Nature of the test: Activation of blood myeloid dendritic cells (CD80/HLA-DR staining, flow cytometry). Particulars: two donors; 1 μM IRM or 3 μM CpG2216, 16-24 hours; HLA-DR positive with increased CD80; FIG. 1. As for the experimental part:
as §1, §2

The compound `CCCc1nc2c(N)nc3ccccc3c2s1` [IRM9, 2-propylthiazolo[4,5-c]quinolin-4-amine] returned an IL-12 in test [1] (donor3, 3.0 μM IRM) of 693 pg/mL.
In the case of `CCc1nc2c(N)nc3ccccc3c2n1CCCCNS(C)(=O)=O` [IRM36, N-[4-(4-amino-2-ethyl-1H-imidazo[4,5-c]quinolin-1-yl)butyl]methanesulfonamide], the “activation of plasmacytoid dendritic cells (pDCs) in vitro” value in test [2] is recorded as “activated”. In addition, the “activation of myeloid dendritic cells (mDCs) in vitro” value in test [3] is “not activated”. The IL-12 in test [1] (donor3, 3.0 μM IRM) is reported as 57 pg/mL; in test [1] (donor4, 3.0 μM IRM), 77 pg/mL.
Consider `CCOCc1nc2c(N)nc3ccccc3c2n1CCCNC(=S)Nc1cccc(C#N)c1` [IRM37, N-{3-[4-amino-2-(ethoxymethyl)-1H-imidazo[4,5-c]quinolin-1-yl]propyl}-N′-(3-cyanophenyl)thiourea], for which the IL-12 is recorded as 296 pg/mL in test [1] (donor3, 3.0 μM IRM) and 491 pg/mL in test [1] (donor4, 3.0 μM IRM).
In the same order, the values of `Cc1nc2c(N)nc3ccccc3c2n1CCCCNC(=O)N1CCCCC1` [IRM38, N-[4-(4-amino-2-methyl-1H-imidazo[4,5-c]quinolin-1-yl)butyl]piperidine-1-carboxamide] are 17 pg/mL and 20 pg/mL.
Turning to `CCc1nc2c(N)nc3ccccc3c2n1CC(C)(C)NC(=O)Nc1ccccc1` [IRM39, N-[2-(4-amino-2-ethyl-1H-imidazo[4,5-c]quinolin-1-yl)-1,1-dimethylethyl]-N′-phenylurea], the IL-12 in test [1] (donor3, 3.0 μM IRM) came out at 280 pg/mL; in test [1] (donor4, 3.0 μM IRM), 400 pg/mL.
In the same order, the values of `CCOCc1nc2c(N)nc3ccccc3c2n1CC(C)(C)O` [IRM40, 4-amino-α,α-dimethyl-2-ethoxymethyl-1H-imidazo[4,5-c]quinolin-1-ethanol] are 517 pg/mL and 765 pg/mL.
For `CC(C)Cn1cnc2c(N)nc3ccccc3c21` [IRM41, 1-(2-methylpropyl)-1H-imidazo[4,5-c]quinolin-4-amine], in that order: 17 pg/mL and 39 pg/mL.
